From US20030229007A1, “Form of human renin and its use as a target in treatments for cardiac ischemia and arrhythmia” (priority 2002, published 2003)
Where a name gives a salt, the structure may show the parent alone. Square brackets hold non-standard residues; d marks the D form. Peptide text beside a SMILES is read from it. * marks the point of attachment. Sta = CC(C)C[C@H](N)[C@@H](O)CC(=O)O; Isovaleryl = CC(C)CC(=O)*

Tests used:
[1] = test system: human cardiac synaptosomes (sympathetic nerve endings); assay: Ischemic NE release from synaptosomes isolated from human right atrium; assay type: cell-based; conditions: 70 min ischemia
Protocol: (§1) Preparation of cardiac synaptosomes. Atrial specimens were freed from fat and connective tissue and minced in ice-cold 0.32 M sucrose containing 1 mM EGTA, pH 7.4, and 1 mM pargyline, to prevent enzymatic destruction of synaptosomal NE. Synaptosomes were isolated as previously described (Imamura et al., Circ. Res. 1995, 77:206-210). Briefly, minced tissue was digested with 120 mg collagenase (Type II, Worthington Biochemicals, Freehold, N.J.) per gm wet heart weight for 1 hr at 37° C. After low speed centrifugation (10 min at 120 g), the resulting pellet was suspended in 10 vol of 0.32 M sucrose and homogenized with a Teflon/glass homogenizer. The homogenate was spun at 650 g for 10 min and the pellet rehomogenized and respun. The pellet containing cellular debris was discarded, and the supernatants from the last two spins were combined and equally subdivided into 4 to 8 tubes and recentrifuged for 20 min at 20,000 g at 4° C. This pellet, which contained cardiac synaptosomes, was resuspended either in HEPES-buffered saline (HBS; 500 μl, normoxic conditions) or in glucose-free HBS which contained the reducing agent sodium dithionite (500 μl, ischemic conditions), and incubated in the absence or presence of angiotensinogen (for 1 hour) or other pharmacological agents for 20 min in a water bath at 37° C. prior to ischemia (see below). HBS contained 50 mM HEPES, pH 7.4, 144 mM NaCl, 5 mM KCl, 1.2 mM CaCl2, 1.2 mM MgCl2, 10 mM glucose. Each suspension functioned as an independent sample and was used only once. In every experiment, one sample was untreated (control, basal NE release).
Induction of ischemia. Ischemia was induced by incubating either atrial fragments or synaptosomes for 70 min in glucose-free KHS (atrial tissue) or HBS (synaptosomes) bubbled with 95% N2 and 5% CO2, containing the reducing agent sodium dithionite (3 mM; PO2 ˜0 mm Hg, pH ˜7.3; ischemic NE release) (Hatta et al. J. Pharmacol Exp. Ther. 1997, 283:494-500). Matched control fragments and synaptosomes were incubated for an equivalent length of time with oxygenated KHS and HBS, respectively (normoxic NE release). When drugs were used, they were continued throughout the entire normoxic and ischemic periods.
Norepinephrine assay. Incubating media were assayed for NE by high pressure liquid chromatography with electrochemical detection (Hatta et al. J. Pharmacol Exp. Ther. 1997, 283:494-500). Perchloric acid and EDTA were added to samples to achieve final concentrations of 0.01 N and 0.025%, respectively. The NE present in the effluent was adsorbed on acid-washed alumina adjusted at pH 8.6 with Tris-2% EDTA buffer, and then extracted into 150 μl of 0.1 N perchloric acid. These final sample aliquots were injected onto a 3 μm ODS reverse-phase column (3.2×100 mm, Bioanalytical System, West Lafayette, Ind.) with an applied potential of 0.65 V. The mobile phase consisted of monochloroacetic acid (75 mM), sodium EDTA (0.5 mM), sodium octylsulfate (0.5 mM) and acetonitrile (1.5%) at pH 3.0. The flow rate was 1.0 ml/min. No NE breakdown occurred during the 70-min ischemic period. Dihydroxybenzylamine was added to each sample as an internal standard prior to alumina extraction and used for calculation of the recovery during the extraction procedure. This recovery was 77% or better. The detection limit was approximately 0.2 pmol.

[2] = test system: human cardiac synaptosomes (sympathetic nerve endings); assay: Ischemic NE release from human cardiac synaptosomes incubated with angiotensinogen; assay type: cell-based; conditions: for effect on angiotensinogen-induced increase in ischemic NE release: angiotensinogen 400 nM
Protocol: as §1
Induction of ischemia. Ischemia was induced by incubating either atrial fragments or synaptosomes for 70 min in glucose-free KHS (atrial tissue) or HBS (synaptosomes) bubbled with 95% N2 and 5% CO2, containing the reducing agent sodium dithionite (3 mM; PO2 ˜0 mm Hg, pH ˜7.3; ischemic NE release) (Hatta et al. J. Pharmacol Exp. Ther. 1997, 283:494-500). […]

[3] = test system: human right atrial tissue; assay: NE release from human right atrium incubated in ischemic conditions; assay type: cell-based; conditions: 70 min ischemia
Excerpt: Source of human cardiac tissue. Specimens of right atrium (i.e., surgical waste tissue) were obtained from 34 patients undergoing cardiopulmonary bypass [29 males and 5 females, age 64.9±1.6 years; coronary artery bypass grafting (CABG) 30, valve replacement 4], following a protocol approved by the Institutional Review Board. Eight of the 30 CABG patients were chronically treated with β-adrenoceptor blocking agents. […] All patients chronically treated with ACE inhibitors were excluded from the study. At the time of surgery, a piece of atrial appendage measuring ˜1 cm^3 was removed from the atriotomy site.
Incubation of atrial tissue. Atrial specimens were immediately transported to the laboratory in ice-cold oxygenated Krebs-Henseleit solution (KHS) of the following composition (mM): NaCl 118.2, KCl 4.83, CaCl2 2.5, MgSO4 2.37, KH2PO4 1.0, NaHCO3 25, and glucose 11.1. After removal of fat and connective tissue, specimens were divided into several fragments (each weighing 24.5±1.1 mg, wet weight, measured at the end of incubation). Each fragment was incubated for 15 min at 37° C. in 2 ml of KHS gassed with 95% O2 and 5% CO2 (Po2 ˜550 mm Hg, pH ˜7.4) containing the monoamine oxidase inhibitor pargyline (1 mM). Following the 15-min stabilization period, fragments were incubated for an additional 20 min in oxygenated KHS in the absence or presence of pharmacological agents. […]

[4] = test system: human right atrial tissue; conditions: as previously reported (Hatta et al. 1997); cited from earlier work

## CC(C)C[C@H](O)[C@H](O)[C@H](CC1CCCCC1)NC(=O)[C@@H](CC(=O)N(CC(=O)N(C)CCc1ccccn1)CC1CCCCC1)Cc1csc(N)n1 [BILA 2157BS]
[1]; 100 nM
  suppression of the enhancement in NE release elicited by ischemia: ~70%
[2]; 100 nM
  effect on angiotensinogen-induced increase in ischemic NE release: prevented
[3]; 30 nM
  decrease in NE release: ~60%

## CNCCCN1c2ccccc2CCc2ccccc21 [DMI, desipramine hydrochloride]
[1]; Homo sapiens, 70 min, 300 nM
  inhibition at 0.3 µM: ~50%
[4]
  effect on ischemic NE release from atrial tissue: inhibited

## CCN(c1nc(N)c(C(=O)N=C(N)N)nc1Cl)C(C)C [EIPA, 5-(N-ethyl-N-isopropyl)-amiloride]
[1]; 30 μM
  inhibition of ischemic NE release: ~50%

## C[C@H](N[C@@H](CCc1ccccc1)C(=O)O)C(=O)N1CCC[C@H]1C(=O)O [enalaprilat, Enalaprilat]
[1]; 3 μM
  reduction of the increase in NE release caused by ischemia: ~80%
[2]; 3 μM
  effect on angiotensinogen-induced increase in ischemic NE release: prevented

## CC(C)CC(=O)N[C@H](C(=O)N[C@H](C(=O)N[C@@H](CC(C)C)[C@@H](O)CC(=O)N[C@@H](C)C(=O)N[C@@H](CC(C)C)[C@@H](O)CC(=O)O)C(C)C)C(C)C [pepstatin-A] (Isovaleryl-VV[Sta]A[Sta]-OH)
[1]; 30 μM
  suppression of the enhancement in NE release elicited by ischemia: ~70%
[3]; 30 μM
  decrease in NE release: ~70%

B1: angiotensinogen: Human plasma angiotensinogen, renin substrate, purchased from Sigma-Aldrich (protein, UniProt P01019 25-476, looked up)
Angiotensinogen: DRVYIHPFHLVIHNESTCEQLAKANAGKPKDPTFIPAPIQAKTSPVDEKALQDQLVLVAAKLDTEDKLRAAMVGMLANFLGFRIYGMHSELWGVVHGATVLSPTAVFGTLASLYLGALDHTADRLQAILGVPWKDKNCTSRLDAHKVLSALQAVQGLLVAQGRADSQAQLLLSTVVGVFTAPGLHLKQPFVQGLALYTPVVLPRSLDFTELDVAAEKIDRFMQAVTGWKTGCSLMGASVDSTLAFNTYVHFQGKMKGFSLLAEPQEFWVDNSTSVSVPMLSGMGTFQHWSDIQDNFSVTQVPFTESACLLLIQPHYASDLDKVEGLTFQQNSLNWMKKLSPRTIHLTMPQLVLQGSYDLQDLLAQAELPAILHTELNLQKLSNDRIRVGEVLNSIFFELEADEREPTESTQQLNKPEVLEVTLNRPFLFAVYDQSATALHFLGRVANPLSTA
[2]; 400 nM angiotensinogen, 70 min ischemia
  increase in ischemic NE release: ~70%
